The values that follow come from ChEMBL document CHEMBL3431459, “Roche carnitine palmitoyltransferase modulator screening data (supplementary data associated with the publication CHEMBL2216752)”.

Series [1] deals with T1, Carnitine O-palmitoyltransferase 1, liver isoform (Homo sapiens, UniProt P50416).
T1 sequence (P50416 whole entry): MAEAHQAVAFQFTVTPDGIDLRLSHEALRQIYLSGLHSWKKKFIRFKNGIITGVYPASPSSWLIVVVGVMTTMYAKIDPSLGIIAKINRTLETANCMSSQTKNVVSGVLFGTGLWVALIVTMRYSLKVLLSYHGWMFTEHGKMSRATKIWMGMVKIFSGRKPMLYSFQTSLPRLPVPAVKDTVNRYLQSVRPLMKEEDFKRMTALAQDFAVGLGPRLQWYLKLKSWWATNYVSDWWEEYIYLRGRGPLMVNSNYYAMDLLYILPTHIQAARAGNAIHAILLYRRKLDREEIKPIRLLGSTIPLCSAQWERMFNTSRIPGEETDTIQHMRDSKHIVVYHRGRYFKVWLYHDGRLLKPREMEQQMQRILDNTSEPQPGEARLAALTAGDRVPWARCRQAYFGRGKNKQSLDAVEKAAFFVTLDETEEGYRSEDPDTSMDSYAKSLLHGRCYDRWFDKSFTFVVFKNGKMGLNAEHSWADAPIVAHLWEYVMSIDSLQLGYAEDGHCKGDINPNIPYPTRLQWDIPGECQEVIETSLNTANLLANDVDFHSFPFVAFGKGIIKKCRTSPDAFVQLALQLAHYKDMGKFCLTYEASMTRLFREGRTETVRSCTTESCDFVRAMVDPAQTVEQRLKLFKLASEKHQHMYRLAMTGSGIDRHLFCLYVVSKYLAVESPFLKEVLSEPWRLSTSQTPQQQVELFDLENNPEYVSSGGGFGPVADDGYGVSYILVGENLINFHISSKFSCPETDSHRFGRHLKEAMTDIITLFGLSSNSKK
Description: (§1) SUPPLEMENTARY: Inhibition of Carnitine palmitoyltransferase 1, liver isoform.

Series [2] deals with T2, Carnitine O-palmitoyltransferase 1, liver isoform (Rattus norvegicus, UniProt P32198).
T2 sequence (P32198 whole entry): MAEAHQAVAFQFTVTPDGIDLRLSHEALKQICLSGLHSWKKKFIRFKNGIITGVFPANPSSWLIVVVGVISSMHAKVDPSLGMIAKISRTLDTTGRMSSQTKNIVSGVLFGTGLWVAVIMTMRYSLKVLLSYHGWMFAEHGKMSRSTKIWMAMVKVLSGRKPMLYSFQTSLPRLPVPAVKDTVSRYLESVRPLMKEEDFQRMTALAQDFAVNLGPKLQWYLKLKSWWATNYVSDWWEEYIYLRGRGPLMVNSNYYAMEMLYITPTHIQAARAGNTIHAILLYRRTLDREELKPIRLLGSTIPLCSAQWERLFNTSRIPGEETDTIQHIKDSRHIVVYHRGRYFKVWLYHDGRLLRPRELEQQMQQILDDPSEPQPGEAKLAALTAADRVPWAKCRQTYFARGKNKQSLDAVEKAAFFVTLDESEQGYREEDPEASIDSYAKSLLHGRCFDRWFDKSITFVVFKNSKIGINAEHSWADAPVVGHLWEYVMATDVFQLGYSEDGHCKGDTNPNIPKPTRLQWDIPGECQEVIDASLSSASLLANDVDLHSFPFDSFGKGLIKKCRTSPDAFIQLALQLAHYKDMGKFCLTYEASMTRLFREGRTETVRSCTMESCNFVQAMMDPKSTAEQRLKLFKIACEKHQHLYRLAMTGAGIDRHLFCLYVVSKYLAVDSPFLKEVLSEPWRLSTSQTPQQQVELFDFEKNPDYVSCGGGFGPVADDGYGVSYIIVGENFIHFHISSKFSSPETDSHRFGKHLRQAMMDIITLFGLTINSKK
The description is as §1.

Series [3] has as its target T3, Carnitine O-palmitoyltransferase 2, mitochondrial (Rattus norvegicus, UniProt P18886).
T3 sequence (P18886 whole entry): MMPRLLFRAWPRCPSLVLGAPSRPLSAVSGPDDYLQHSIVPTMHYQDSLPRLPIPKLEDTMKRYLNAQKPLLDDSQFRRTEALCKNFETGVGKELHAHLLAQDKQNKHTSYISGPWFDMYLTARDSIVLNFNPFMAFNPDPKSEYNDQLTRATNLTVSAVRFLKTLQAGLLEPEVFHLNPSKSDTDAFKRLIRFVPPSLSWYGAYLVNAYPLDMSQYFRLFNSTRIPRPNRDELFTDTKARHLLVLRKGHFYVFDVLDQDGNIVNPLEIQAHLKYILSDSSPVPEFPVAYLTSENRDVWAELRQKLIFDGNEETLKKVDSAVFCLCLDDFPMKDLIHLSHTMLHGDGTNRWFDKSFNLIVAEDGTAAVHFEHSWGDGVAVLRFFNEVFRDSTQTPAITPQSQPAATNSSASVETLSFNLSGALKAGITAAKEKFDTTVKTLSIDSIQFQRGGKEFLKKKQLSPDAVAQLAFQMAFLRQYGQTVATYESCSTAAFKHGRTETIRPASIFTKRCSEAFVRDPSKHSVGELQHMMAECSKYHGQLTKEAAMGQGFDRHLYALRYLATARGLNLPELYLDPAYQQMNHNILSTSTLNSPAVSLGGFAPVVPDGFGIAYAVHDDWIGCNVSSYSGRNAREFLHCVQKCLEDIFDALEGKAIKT
Description: (§2) SUPPLEMENTARY: Inhibition of Carnitine palmitoyltransferase 2.

Series [4] has as its target T4, Carnitine O-palmitoyltransferase 2, mitochondrial (Homo sapiens, UniProt P23786).
T4 sequence (P23786 whole entry): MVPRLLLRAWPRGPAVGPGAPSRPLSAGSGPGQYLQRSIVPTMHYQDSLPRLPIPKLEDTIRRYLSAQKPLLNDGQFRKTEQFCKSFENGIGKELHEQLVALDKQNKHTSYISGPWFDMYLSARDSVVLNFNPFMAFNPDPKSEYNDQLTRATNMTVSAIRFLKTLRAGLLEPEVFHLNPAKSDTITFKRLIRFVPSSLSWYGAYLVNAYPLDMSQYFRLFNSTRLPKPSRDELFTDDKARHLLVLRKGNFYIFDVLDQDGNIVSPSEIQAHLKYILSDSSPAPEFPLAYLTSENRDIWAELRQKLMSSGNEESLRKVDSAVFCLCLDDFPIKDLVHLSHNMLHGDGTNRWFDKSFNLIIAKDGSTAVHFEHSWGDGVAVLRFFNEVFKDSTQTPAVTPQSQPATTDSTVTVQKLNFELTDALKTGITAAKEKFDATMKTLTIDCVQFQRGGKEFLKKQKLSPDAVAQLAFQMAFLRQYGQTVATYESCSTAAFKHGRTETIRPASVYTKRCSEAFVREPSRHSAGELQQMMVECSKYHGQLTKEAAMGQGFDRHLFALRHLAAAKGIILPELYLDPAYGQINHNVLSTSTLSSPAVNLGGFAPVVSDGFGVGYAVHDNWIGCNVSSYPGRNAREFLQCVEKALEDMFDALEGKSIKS
The series is described as §2.

A short description of series [5]: SUPPLEMENTARY: Lipophilicity (log D) Determination by high-throughput shake-flask. In kind it is physicochemical. As to conditions: octanol/water.
Series [6] can be described thus: SUPPLEMENTARY: Lyophilisation Solubility Assay (LYSA). As to conditions: read-out: Kinetic_solubility. In kind it is physicochemical.
Series [7] addresses T5, Carnitine O-palmitoyltransferase 1, muscle isoform (Homo sapiens, UniProt Q92523).
T5 sequence (Q92523 whole entry): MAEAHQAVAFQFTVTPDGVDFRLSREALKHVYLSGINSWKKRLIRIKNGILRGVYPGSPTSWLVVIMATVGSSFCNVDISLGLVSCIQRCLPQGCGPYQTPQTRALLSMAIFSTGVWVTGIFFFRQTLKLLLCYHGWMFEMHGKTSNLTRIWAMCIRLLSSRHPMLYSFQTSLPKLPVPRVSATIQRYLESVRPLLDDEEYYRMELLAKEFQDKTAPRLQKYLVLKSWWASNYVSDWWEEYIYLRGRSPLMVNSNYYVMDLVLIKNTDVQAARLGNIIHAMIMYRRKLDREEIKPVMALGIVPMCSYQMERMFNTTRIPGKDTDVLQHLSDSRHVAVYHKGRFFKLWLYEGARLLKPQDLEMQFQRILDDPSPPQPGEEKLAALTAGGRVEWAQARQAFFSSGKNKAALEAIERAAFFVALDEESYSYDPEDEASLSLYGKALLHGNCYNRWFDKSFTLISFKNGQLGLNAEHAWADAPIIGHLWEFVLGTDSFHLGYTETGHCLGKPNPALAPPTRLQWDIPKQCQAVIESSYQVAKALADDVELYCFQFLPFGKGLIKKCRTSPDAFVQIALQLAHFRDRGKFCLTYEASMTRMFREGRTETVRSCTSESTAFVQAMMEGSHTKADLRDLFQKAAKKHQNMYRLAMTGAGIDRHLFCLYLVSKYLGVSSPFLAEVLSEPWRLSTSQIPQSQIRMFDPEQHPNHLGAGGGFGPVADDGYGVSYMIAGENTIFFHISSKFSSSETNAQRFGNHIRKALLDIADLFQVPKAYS
The experiment in a line: SUPPLEMENTARY: Inhibition of Carnitine palmitoyltransferase 1, muscle isoform. Also noted: species or system Muscle tissue.

Series [8] can be described thus: SUPPLEMENTARY: PAMPA permeability assay. Format: physicochemical. As to conditions: read-out: Permeability.

SMILES strings stand for the structures. ≈ marks a conversion by molar mass, not a printed value.

Turning to `N#Cc1ccc(-c2nc([C@H]3CCCCN3C(=O)COc3ccccc3)no2)cn1`, the IC50 in series [1] is 166 nM; in series [2], 247 nM; in series [3], 79200 nM; in series [4], 7280 nM; in series [7], greater than 100000 nM. Moreover, the logD in series [5] was determined as 2.54. The solubility kinetic in series [6] was 33 µg/mL (≈ 84.7 µM). Besides, the Papp in series [8] stood at 8.44 ×10⁻⁶ cm/s.

On to `O=C(COc1ccccc1)N1CCCC[C@@H]1c1noc(-c2cccc3[nH][nH]c(=O)c23)n1`, for which the IC50 in series [1] was 99.8 nM; in series [2], 93.1 nM; in series [3], 7630 nM; in series [4], 6260 nM; in series [7], 7620 nM. This compound also gave a logD in series [5] of 2.53. In series [6], the solubility kinetic is 46 µg/mL (≈ 110 µM). Further, the Papp in series [8] came out at 6.44 ×10⁻⁶ cm/s.

On to `Nc1cc(-c2nc([C@H]3CCCCN3C(=O)COc3ccccc3)no2)ccn1`, for which the IC50 in series [1] was 110 nM; in series [2], 372 nM; in series [3], greater than 100000 nM; in series [4], 42700 nM; in series [7], greater than 100000 nM. Further, the pH-dependent lipophilicity (logD) in series [5] is 2.47. The solubility kinetic in series [6] was 61 µg/mL (≈ 161 µM). Further, the Papp in series [8] was determined as 4.86 ×10⁻⁶ cm/s.

For the compound `COc1ccc(Cl)cc1CN1C(=O)OC(C)(C)c2ccc(C(=O)Nc3ccc(CC(=O)O)cc3)cc21`, the IC50 in series [1] is 147 nM; in series [2] it was 41.9 nM; in series [3], greater than 100000 nM; in series [4], greater than 100000 nM; in series [7] it was 2330 nM. For the same compound, in series [5], the pH-dependent lipophilicity (logD) is 0.51. Moreover, the solubility kinetic in series [6] is 26 µg/mL (≈ 51.1 µM). The Papp in series [8] was found to be 1.71 ×10⁻⁶ cm/s.

As for `CC(=O)Nc1cc(F)cc(-c2n[nH]c([C@H]3CCCCN3C(=O)COc3ccccc3)n2)c1`, the IC50 is 26.4 nM in series [1]; 65.6 nM in series [2]; greater than 100000 nM in series [3]; greater than 100000 nM in series [4]; greater than 100000 nM in series [7]. In series [5], this compound registered a logD of 3.22. The solubility kinetic in series [6] is 37 µg/mL (≈ 84.6 µM). Besides, the Papp in series [8] is 1.69 ×10⁻⁶ cm/s.

`CC(=O)Nc1cc(-c2n[nH]c([C@H]3CCCCN3C(=O)COc3ccccc3)n2)ccc1F`: the IC50 in series [1] was 79.5 nM; in series [2] it was 375 nM; in series [3], greater than 100000 nM; in series [4], 45900 nM; in series [7], greater than 100000 nM. In series [5], the logD was 2.43. In series [6], the solubility kinetic is 121 µg/mL (≈ 277 µM). Moreover, the Papp in series [8] was determined as 2.67 ×10⁻⁶ cm/s.

Take `CC(=O)Nc1cc(F)cc(-c2noc([C@H]3CCCCN3C(=O)COc3ccccc3)n2)c1`: the IC50 was 123 nM in series [1]; 131 nM in series [2]; greater than 100000 nM in series [3]; greater than 100000 nM in series [4]; greater than 100000 nM in series [7]. This compound displayed a logD in series [5] of 3.62. For the same compound, the solubility kinetic in series [6] was less than 1 µg/mL. In addition, in series [8], the Papp turned out to be 1.35 ×10⁻⁶ cm/s.

For `CC(=O)Nc1cc(-c2noc([C@H]3CCCCN3C(=O)COc3ccccc3)n2)ccc1F`, the IC50 is 27.9 nM in series [1]; 146 nM in series [2]; greater than 100000 nM in series [3]; greater than 100000 nM in series [4]; greater than 100000 nM in series [7]. Further, the logD in series [5] worked out at 3. In series [6], the solubility kinetic came to 18 µg/mL (≈ 41.1 µM). Moreover, the Papp in series [8] was 2.17 ×10⁻⁶ cm/s.

In the case of `Cc1cccc(S(=O)(=O)N2CCOc3ccc(C(=O)Nc4nc(CC(=O)O)cs4)cc32)c1`, the 50% inhibitory concentration (IC50) in series [1] was 56.1 nM; in series [2] it was 55.2 nM; in series [3] it was greater than 100000 nM; in series [4], greater than 100000 nM; in series [7], 1080 nM. This compound also registered a logD in series [5] of 0.14. The solubility kinetic in series [6] is greater than 631 µg/mL. In addition, in series [8], the Papp was found to be 3.08 ×10⁻⁶ cm/s.

With `O=C(O)Cc1csc(NC(=O)c2ccc3c(c2)N(S(=O)(=O)c2cccc(Cl)c2)CCO3)n1`, the IC50 in series [1] is 22.6 nM; in series [2] it was 11.5 nM; in series [3], greater than 100000 nM; in series [4], greater than 100000 nM; in series [7], 618 nM. Moreover, in series [5], the logD was found to be 0.37. The solubility kinetic in series [6] came out at 54 µg/mL (≈ 109 µM). For the same compound, the Papp in series [8] was found to be 2.91 ×10⁻⁶ cm/s.
